Data: patent US6855726B1, “Quinolones as serine protease inhibitors” (Warner-Lambert Company LLC, priority 1998, dated 2005)

How the values were obtained:
[1] = rat arteriovenous shunt and venous stasis models; Wong et al. 1996; cited from earlier work
human factor Xa = target: T1, human factor Xa (Homo sapiens, UniProt P00742); assay: Determination of factor Xa IC50 (chromogenic substrate S2765); type: biochemical
T1 construct: human factor Xa (1 nM final, Enzyme Research Laboratories); purchased Enzyme Research Laboratories
Method: The ability of compounds to act as inhibitors of human factor Xa catalytic activity is assessed by determination of that concentration of test substance that inhibits by 50% (IC50) the ability of human factor Xa to cleave the chromogenic substrate S2765 (N-CBz-D-Arg-L-Gly-L-Arg-p-nitroanilide. 2HCl, DiaPharma). Typically, 145 μL human factor Xa (1 nM final, Enzyme Research Laboratories) in 10 mM HEPES, 150 mM NaCl, 0.1% BSA, pH 7.4 (HBSA buffer) and 5 μL of test substance in DMSO (2% final) are incubated for 60 minutes at room temperature. Following preheating to 37° C. for 5 minutes, to this mixture is added […] of S2765 in HBSA buffer. The velocity of S2765 hydrolysis is determined at 37° C. by measuring the initial rate of change of the optical density at OD405 nm every 10 seconds for 5 minutes using a ThermoMax®D Kinetic Microplate Reader.

human thrombin = target: T2, human thrombin (Homo sapiens, UniProt P00734); assay: Determination of thrombin IC50 (chromogenic substrate Chromozym TH); type: biochemical
T2 construct: purchased Enzyme Research Laboratories
Method: The ability of compounds to act as inhibitors of human thrombin catalytic activity is assessed by determination of that concentration of test substance that inhibits by 50% (IC50) the ability of human thrombin to cleave the chromogenic substrate Chromozym TH (Tosyl-Gly-Pro-Arg-pNA*Ac, Boehringer Mannheim). Typically, 145 μL human thrombin (0.75 nM, Enzyme Research Laboratories) in a HPB buffer (10 mM HEPES, 100 mM NaCl, 0.05% BSA, 0.1% PEG-8000, pH 7.4) and 5 μL of test substance in DMSO (2% final) are incubated for 60 minutes at room temperature. Following preheating to 37° C. for 5 minutes, to this mixture is added 100 μL of Chromozym TH in HPB buffer. The velocity of Chromozym TH hydrolysis is determined at 37° C. by measuring the initial rate of change of the optical density at OD405 nm every 10 seconds for 5 minutes using a ThermoMax® Kinetic Microplate Reader.

human trypsin = human trypsin (Homo sapiens, UniProt P07477); assay: Determination of trypsin IC50 (chromogenic substrate S2222); type: biochemical
Method: The ability of compounds to act as inhibitors of human trypsin catalytic activity is assessed by determination of that concentration of test substance that inhibits by 50% (IC50) the ability of human trypsin to cleave the chromogenic substrate S2222 (N-Bz-L-Ile-L-Glu-L-Gly-L-Arg-p-nitroanilide. HCl, DiaPharma). Typically, 145 μL human trypsin (0.5 nM final) in 10 mM HEPES, 150 mM NaCl, 0.1% BSA, and 5 μL of the test substance in DMSO (2% final) are incubated for 60 minutes at room temperature. Following preheating to 37° C. for 5 minutes, to this mixture is added 100 μL of S2222 in HBSA buffer (100 μM final), and the velocity of S2222 hydrolysis is determined at 37° C. by measuring the optical density at OD405 nm every 10 seconds over 5 minutes using a ThermoMax® Kinetic Microplate Reader.

[2] = rabbit venous thrombosis; Fioravanti et al. 1993; cited from earlier work
[3] = canine coronary artery, electrolytic lesion model; Lynch et al., Schaffer et al.; cited from earlier work
[4] = dog, adjunct to recombinant tissue plasminogen activator; Mellott et al. 1993; cited from earlier work
[5] = various models of arterial and venous thrombosis; Lapatto et al. 1997; cited from earlier work

T1 sequence (P00742 235-488 limits assumed): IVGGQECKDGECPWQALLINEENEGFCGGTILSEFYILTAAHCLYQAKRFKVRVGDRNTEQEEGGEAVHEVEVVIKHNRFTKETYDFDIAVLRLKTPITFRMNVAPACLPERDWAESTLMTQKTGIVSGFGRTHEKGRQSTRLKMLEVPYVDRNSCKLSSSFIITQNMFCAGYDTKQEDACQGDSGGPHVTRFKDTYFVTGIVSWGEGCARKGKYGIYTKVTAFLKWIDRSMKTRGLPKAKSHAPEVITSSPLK
T1 sequence (P00742 41-179 partner limits assumed): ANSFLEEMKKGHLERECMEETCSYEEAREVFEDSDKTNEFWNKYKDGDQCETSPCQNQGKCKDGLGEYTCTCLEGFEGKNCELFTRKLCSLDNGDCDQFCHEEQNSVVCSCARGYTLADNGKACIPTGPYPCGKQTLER

CC(=N)N1CC[C@H](Oc2ccc([C@H](Cc3ccc4ccc(C(=N)N)cc4c3)C(=O)O)cc2)C1 [DX9065a]
inhibition of thrombus formation [1]: inhibition of thrombus formation was achieved at doses that had little effect on APTT

C[C@@H]1CCC[C@H](C)N1CCCCCN1C(=O)C(c2cc(C(=N)N)ccc2O)Cc2ccccc21 (stereo partly drawn) [Example 2, 3-(1-5-[(2R,6S)-2,6-dimethyltetrahydro-1(2H)-pyridinyl]pentyl-2-oxo-1,2,3,4-tetrahydro-3-quinolinyl)-4-hydroxybenzenecarboximidamide]
IC50 (human factor Xa): 20 nM | IC50 (human thrombin): 1140 nM | IC50 (human trypsin): 562 nM

rTAP: recombinant tick anticoagulant peptide, a protein or polypeptide factor Xa inhibitor (YNRLCIKPRDWIDECDSNEGGERAYFRNGKGGCDSFWICPEDHTGADYYSSYRDCFNACI; UniProt P17726 1-60, looked up)
fibrin deposition [2]: reduce fibrin deposition | thrombus mass and time to occlusion [3]: reduce thrombus mass and time to occlusion | clot lysis and acute reocclusion [4]: accelerate the recombinant tissue plasminogen activator mediated clot lysis and prevent acute reocclusion

B1: Antistasin: a potent inhibitor of blood coagulation factor Xa, from the Mexican leech Haementeria officinalis (protein, UniProt P15358 18-136, looked up)
Antistasin: QGPFGPGCEEAGCPEGSACNIITDRCTCSGVRCRMHCPHGFQRSRYGCEFCKCRLEPMKATCDISECPEGMMCSRLTNKCDCKIDINCRKTCPNGLKRDKLGCEYCECRPKRKLIPRLS
antithrombotic activity [5]: displays antithrombotic activity
